These compounds were tested against human PAD4 (hPAD4) (Homo sapiens (Human), UniProt Q9UM07) (assay: RFMS Human PAD4 Functional Assay 1). Conditions: RFMS assay 1; 5 nM hPAD4, 250 μM BAEE substrate, 50 μM calcium, 37° C.
Type: biochemical
How it was run: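 Recombinant hPAD4 (5 nM) was preincubated with compound (top 50 μM, 0.5% DMSO) for 30 min at 37 °C, then reacted with 250 μM BAEE for 90 min at 37 °C in pH 7.5 HEPES buffer with 50 μM calcium and 5 μM TPEN. Product was derivatized with phenyl glyoxal and quantified by RapidFire MS.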

human PAD4 (hPAD4), sequence (Q9UM07 whole entry): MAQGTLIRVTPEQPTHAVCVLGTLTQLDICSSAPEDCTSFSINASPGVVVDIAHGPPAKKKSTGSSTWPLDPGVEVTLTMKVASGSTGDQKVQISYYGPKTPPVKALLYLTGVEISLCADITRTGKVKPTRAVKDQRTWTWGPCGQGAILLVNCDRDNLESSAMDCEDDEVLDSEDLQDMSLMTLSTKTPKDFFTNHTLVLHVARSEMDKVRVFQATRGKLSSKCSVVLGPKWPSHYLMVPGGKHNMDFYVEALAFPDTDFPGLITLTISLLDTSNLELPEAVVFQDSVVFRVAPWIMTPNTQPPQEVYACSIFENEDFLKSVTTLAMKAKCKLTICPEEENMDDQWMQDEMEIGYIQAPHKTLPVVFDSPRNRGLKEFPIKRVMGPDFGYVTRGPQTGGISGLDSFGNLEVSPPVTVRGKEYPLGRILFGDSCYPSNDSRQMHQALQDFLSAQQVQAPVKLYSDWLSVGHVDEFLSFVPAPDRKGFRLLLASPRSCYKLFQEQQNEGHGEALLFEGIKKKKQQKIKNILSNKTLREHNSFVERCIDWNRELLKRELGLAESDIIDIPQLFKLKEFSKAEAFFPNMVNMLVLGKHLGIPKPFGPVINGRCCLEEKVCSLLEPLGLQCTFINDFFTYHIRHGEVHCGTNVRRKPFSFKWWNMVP

Row | SMILES | IC50
1 | COc1cc(C(=O)N2CC3CCC2[C@@H]3N)cn2nc(-c3cc4ccc(-c5ccn6c(C)nnc6c5)cc4n3CC3CC3)c(C)c12 (stereo partly drawn) [Example 25, ((7R)-7-Amino-2-azabicyclo[2.2.1]heptan-2-yl)(2-(1-(cyclopropylmethyl)-6-(3-methyl-[1,2,4]triazolo[4,3-a]pyridin-7-yl)-1H-indol-2-yl)-4-methoxy-3-methylpyrazolo[1,5-a]pyridin-6-yl)methanone] | 17 nM
2 | COc1cc(C(=O)N2CC3CCC2[C@@H]3N)cn2nc(-c3cc4ccc(-c5ccc(OC(F)F)cc5)cc4n3CC3CC3)c(C)c12 (stereo partly drawn) [Example 26, ((7R)-7-Amino-2-azabicyclo[2.2.1]heptan-2-yl)(2-(1-(cyclopropylmethyl)-6-(4-(difluoromethoxy)phenyl)-1H-indol-2-yl)-4-methoxy-3-methylpyrazolo[1,5-a]pyridin-6-yl)methanone] | 449 nM
3 | COc1cc(C(=O)N2CC3CCC2[C@@H]3N)cn2nc(-c3cc4ccc(C)cc4n3CC3CC3)c(C)c12 (stereo partly drawn) [Example 27, ((7R)-7-Amino-2-azabicyclo[2.2.1]heptan-2-yl)(2-(1-(cyclopropylmethyl)-6-methyl-1H-indol-2-yl)-4-methoxy-3-methylpyrazolo[1,5-a]pyridin-6-yl)methanone] | 22 nM
4 | COc1cc(C(=O)N2C[C@H](N)C[C@@H](F)C2)cn2nc(-c3cc4ccc(-c5ccc6c(c5)C(=O)NC6)cc4n3CC3CC3)c(C)c12 [Example 29, 6-(2-(6-((3R,5R)-3-Amino-5-fluoropiperidine-1-carbonyl)-4-methoxy-3-methylpyrazolo[1,5-a]pyridin-2-yl)-1-(cyclopropylmethyl)-1H-indol-6-yl)isoindolin-1-one] | 1020 nM
5 | COc1cc(C(=O)N2C[C@H](N)C[C@@H](F)C2)cn2nc(-c3cc4ccc(-c5ccc6c(c5)CNC6=O)cc4n3CC3CC3)c(C)c12 [Example 30, 5-(2-(6-((3R,5R)-3-Amino-5-fluoropiperidine-1-carbonyl)-4-methoxy-3-methylpyrazolo[1,5-a]pyridin-2-yl)-1-(cyclopropylmethyl)-1H-indol-6-yl)isoindolin-1-one] | 84 nM
6 | COc1cc(C(=O)N2C[C@H](N)C[C@@H](F)C2)cn2nc(-c3cc4ccc(-c5ccn6c(C)nnc6c5)cc4n3CC3CC3)c(C)c12 [Example 31, ((3R,5R)-3-Amino-5-fluoropiperidin-1-yl)(2-(1-(cyclopropylmethyl)-6-(3-methyl-[1,2,4]triazolo[4,3-a]pyridin-7-yl)-1H-indol-2-yl)-4-methoxy-3-methylpyrazolo[1,5-a]pyridin-6-yl)methanone] | 65 nM
7 | COc1cc(C(=O)N2C[C@H](N)C[C@@H](F)C2)cn2nc(-c3cc4ccc(-c5cccc(O)c5F)cc4n3CC3CC3)c(C)c12 [Example 32, ((3R,5R)-3-Amino-5-fluoropiperidin-1-yl)(2-(1-(cyclopropylmethyl)-6-(2-fluoro-3-hydroxyphenyl)-1H-indol-2-yl)-4-methoxy-3-methylpyrazolo[1,5-a]pyridin-6-yl)methanone] | 414 nM
8 | COCC1CN(c2ccc3cc(-c4nn5cc(C(=O)N6C[C@H](N)C[C@@H](F)C6)cc(OC)c5c4C)n(CC4CC4)c3c2)C1 [Example 33, ((3R,5R)-3-Amino-5-fluoropiperidin-1-yl)(2-(1-(cyclopropylmethyl)-6-(3-(methoxymethyl)-azetidin-1-yl)-1H-indol-2-yl)-4-methoxy-3-methylpyrazolo[1,5-a]pyridin-6-yl)methanone] | 534 nM
9 | COc1cc(C(=O)N2C[C@H](N)C[C@@H](F)C2)cn2nc(-c3cc4ccc(N5C[C@H](N)C[C@@H](F)C5)cc4n3CC3CC3)c(C)c12 [Example 34, ((3R,5R)-3-Amino-5-fluoropiperidin-1-yl)(2-(6-((3R,5R)-3-amino-5-fluoropiperidin-1-yl)-1-(cyclopropylmethyl)-1H-indol-2-yl)-4-methoxy-3-methylpyrazolo[1,5-a]pyridin-6-yl)methanone] | 42 nM
10 | COc1cc(C(=O)N2C[C@H](N)C[C@@H](F)C2)cn2nc(-c3cc4ccc(N5CCC(OC)CC5)cc4n3CC3CC3)c(C)c12 [Example 35, ((3R,5R)-3-Amino-5-fluoropiperidin-1-yl)(2-(1-(cyclopropylmethyl)-6-(4-methoxypiperidin-1-yl)-1H-indol-2-yl)-4-methoxy-3-methylpyrazolo[1,5-a]pyridin-6-yl)methanone] | 139 nM
11 | COc1cc(C(=O)N2C[C@H](N)C[C@@H](F)C2)cn2nc(-c3cc4ccc(NC[C@@H](F)C(C)(C)O)cc4n3CC3CC3)c(C)c12 [Example 36, ((3R,5R)-3-Amino-5-fluoropiperidin-1-yl)(2-(1-(cyclopropylmethyl)-6-(((R)-2-fluoro-3-hydroxy-3-methylbutyl)amino)-1H-indol-2-yl)-4-methoxy-3-methylpyrazolo[1,5-a]pyridin-6-yl)methanone] | 782 nM
12 | COc1cc(C(=O)N2C[C@H](N)C[C@@H](F)C2)cn2nc(-c3cc4ccc(N5CC(F)(CO)C5)cc4n3CC3CC3)c(C)c12 [Example 37, ((3R,5R)-3-Amino-5-fluoropiperidin-1-yl)(2-(1-(cyclopropylmethyl)-6-(3-fluoro-3-(hydroxymethyl)azetidin-1-yl)-1H-indol-2-yl)-4-methoxy-3-methylpyrazolo[1,5-a]pyridin-6-yl)methanone] | 3610 nM
13 | Cc1c(-c2cc3cccnc3n2CC2CC2)nn2cc(C(=O)N3CC4CCC3[C@@H]4N)cc(F)c12 (stereo partly drawn) [Example 38, ((7R)-7-Amino-2-azabicyclo[2.2.1]heptan-2-yl)(2-(1-(cyclopropylmethyl)-1H-pyrrolo[2,3-b]pyridin-2-yl)-4-fluoro-3-methylpyrazolo[1,5-a]pyridin-6-yl)methanone] | 158 nM
14 | Cc1c(-c2cc3ccc(Cl)nc3n2CC2CC2)nn2cc(C(=O)N3CC4CCC3[C@@H]4N)cc(F)c12 (stereo partly drawn) [Example 39, ((7R)-7-Amino-2-azabicyclo[2.2.1]heptan-2-yl)(2-(6-chloro-1-(cyclopropylmethyl)-1H-pyrrolo[2,3-b]pyridin-2-yl)-4-fluoro-3-methylpyrazolo[1,5-a]pyridin-6-yl)methanone] | 87 nM
15 | Cc1ccc2cc(-c3nn4cc(C(=O)N5CC6CCC5[C@@H]6N)cc(F)c4c3C)n(CC3CC3)c2n1 (stereo partly drawn) [Example 40, 3((7R)-7-Amino-2-azabicyclo[2.2.1]heptan-2-yl)(2-(1-(cyclopropylmethyl)-6-methyl-1H-pyrrolo[2,3-b]pyridin-2-yl)-4-fluoro-3-methylpyrazolo[1,5-a]pyridin-6-yl)methanone] | 25 nM
16 | Cc1c(-c2cc3ccc(C4CC4)nc3n2CC2CC2)nn2cc(C(=O)N3CC4CCC3[C@@H]4N)cc(F)c12 (stereo partly drawn) [Example 41, ((7R)-7-Amino-2-azabicyclo[2.2.1]heptan-2-yl)(2-(6-cyclopropyl-1-(cyclopropylmethyl)-1H-pyrrolo[2,3-b]pyridin-2-yl)-4-fluoro-3-methylpyrazolo[1,5-a]pyridin-6-yl)methanone] | 85 nM
17 | Cc1c(-c2cc3ccc(-c4ccc5c(c4)CNC5=O)nc3n2CC2CC2)nn2cc(C(=O)N3CC4CCC3[C@@H]4N)cc(F)c12 (stereo partly drawn) [Example 42, 5-(2-(6-((7R)-7-Amino-2-azabicyclo[2.2.1]heptane-2-carbonyl)-4-fluoro-3-methylpyrazolo[1,5-a]pyridin-2-yl)-1-(cyclopropylmethyl)-1H-pyrrolo[2,3-b]pyridin-6-yl)isoindolin-1-one] | 9 nM
18 | Cc1c(-c2cc3ccc(-c4ccn5c(C)nnc5c4)nc3n2CC2CC2)nn2cc(C(=O)N3CC4CCC3[C@@H]4N)cc(F)c12 (stereo partly drawn) [Example 43, ((7R)-7-Amino-2-azabicyclo[2.2.1]heptan-2-yl)(2-(1-(cyclopropylmethyl)-6-(3-methyl-[1,2,4]triazolo[4,3-a]pyridin-7-yl)-1H-pyrrolo[2,3-b]pyridin-2-yl)-4-fluoro-3-methylpyrazolo[1,5-a]pyridin-6-yl)methanone] | 150 nM
19 | Cc1c(-c2cc3ccc(-c4ccc(OC(F)F)c(F)c4)nc3n2CC2CC2)nn2cc(C(=O)N3CC4CCC3[C@@H]4N)cc(F)c12 (stereo partly drawn) [Example 44, ((7R)-7-Amino-2-azabicyclo[2.2.1]heptan-2-yl)(2-(1-(cyclopropylmethyl)-6-(4-(difluoromethoxy)-3-fluorophenyl)-1H-pyrrolo[2,3-b]pyridin-2-yl)-4-fluoro-3-methylpyrazolo[1,5-a]pyridin-6-yl)methanone] | 1480 nM
20 | COc1cc(-c2ccc3cc(-c4nn5cc(C(=O)N6CC7CCC6[C@@H]7N)cc(F)c5c4C)n(CC4CC4)c3n2)c(F)cn1 (stereo partly drawn) [Example 45, ((7R)-7-Amino-2-azabicyclo[2.2.1]heptan-2-yl)(2-(1-(cyclopropylmethyl)-6-(5-fluoro-2-methoxypyridin-4-yl)-1H-pyrrolo[2,3-b]pyridin-2-yl)-4-fluoro-3-methylpyrazolo[1,5-a]pyridin-6-yl)methanone] | 101 nM
21 | Cc1c(-c2cc3ccc(-c4ccc5c(c4)C(=O)NC5)nc3n2CC2CC2)nn2cc(C(=O)N3CC4CCC3[C@@H]4N)cc(F)c12 (stereo partly drawn) [Example 46, 6-(2-(6-((7R)-7-Amino-2-azabicyclo[2.2.1]heptane-2-carbonyl)-4-fluoro-3-methylpyrazolo[1,5-a]pyridin-2-yl)-1-(cyclopropylmethyl)-1H-pyrrolo[2,3-b]pyridin-6-yl)isoindolin-1-one] | 41 nM
22 | Cc1c(-c2cc3ccc(-c4ccc(OC(F)F)cc4)nc3n2CC2CC2)nn2cc(C(=O)N3CC4CCC3[C@@H]4N)cc(F)c12 (stereo partly drawn) [Example 47, ((7R)-7-Amino-2-azabicyclo[2.2.1]heptan-2-yl)(2-(1-(cyclopropylmethyl)-6-(4-(difluoromethoxy)phenyl)-1H-pyrrolo[2,3-b]pyridin-2-yl)-4-fluoro-3-methylpyrazolo[1,5-a]pyridin-6-yl)methanone] | 1480 nM
23 | Cc1c(-c2cc3ccc(-c4ccc(O)c(F)c4)nc3n2CC2CC2)nn2cc(C(=O)N3CC4CCC3[C@@H]4N)cc(F)c12 (stereo partly drawn) [Example 48, ((7R)-7-Amino-2-azabicyclo[2.2.1]heptan-2-yl)(2-(1-(cyclopropylmethyl)-6-(3-fluoro-4-hydroxyphenyl)-1H-pyrrolo[2,3-b]pyridin-2-yl)-4-fluoro-3-methylpyrazolo[1,5-a]pyridin-6-yl)methanone] | 326 nM
